Here are results for 134 compounds from the SangsterLogP compilation.

Conditions in the first data set: not given
As usually defined, the logP is a log measure of how a compound divides between an organic and an aqueous phase. Read a high logP as higher lipophilicity. For `CCOC(=O)C(Cl)(Cl)Cl`, the logP stood at 2.39. Same read-out and setting: the result for `CCc1cccc(C)c1NC(=O)OC(C)C` reads 2.52; that for `CN(C)C(=S)NN`, -0.3; that for `O=[N+]([O-])c1ccc(O)c(O)c1`, 1.66. Still for that read-out and setting: the result for `CCc1ccncc1` reads 1.65; that for `CC(=S)N(c1ccccc1)c1ccccc1`, 2.83; that for `COC(=O)c1cc(Cl)ccc1N`, 3.3. On the same count and under the same terms, the result for `O=[N+]([O-])c1ccc(/C=C/c2ncc[nH]2)o1` reads 1.32; that for `Cn1cccc1C=NNC(=O)Nc1ccccc1`, 2.71. The compound `COC(=O)CC(C)C` showed a logP of 1.82. Take `N#Cc1cccc(C#N)c1`: the logP is 0.8.

`CCOC(=O)C(F)F` came in with a logP of 0.87.

As for `O=C1C=C(N2CCCC2)C(=O)c2ccccc21`, the logP was determined as 2.89. Regarding `Cn1c(N)nc2ccc(Cl)cc21`, the logP was 2.01. On the same count and under the same terms, in the case of `CCC(=O)N(C)C` it was -0.11. Same read-out and setting: the result for `CNC(=O)Oc1cccc2c1OC(C)(C)O2` reads 1.7; that for `O=C(O)COc1cc(F)cc(I)c1`, 2.42. Still for that read-out and setting: the result for `CSc1nc2nc(Cl)ccc2[nH]1` reads 2.39. `CC(C)(C)C(O)(CCc1ccc(Cl)cc1)Cn1cncn1` (centres undefined) registered a logP of 3.7. Still for that read-out and setting: in the case of `Nc1cc(C(F)(F)F)ccc1Cl` it was 3.06; in that of `Nc1n[nH]c(Cc2ccc([N+](=O)[O-])o2)n1`, 1.28; in that of `CNC1=CC(=O)C(NC)=CC1=O`, 0.34. On the same count and under the same terms, in the case of `N#Cc1ccc(C#N)cc1` it was 0.93; in that of `COC(=O)Nc1c(C(C)C)cccc1C(C)C`, 2.2; in that of `CNC(=O)c1ccco1`, 0.23. Still for that read-out and setting: in the case of `CN(C)C1=CC(=O)C(N(C)C)=CC1=O` it was 1.03; in that of `CCCCCn1cnc2c(NC(C)=O)ncnc21`, 0.98; in that of `CCC(C(N)=O)(C(N)=O)c1ccccc1`, 0.13. In turn, `Cc1ccc(O)c(-n2nc3ccccc3n2)c1` returned a logP of 4.31. Still for that read-out and setting: the result for `Cc1cccc(C)c1N` reads 1.84; that for `CCCCn1cc(C)c(=O)[nH]c1=O`, 0.91. The same measure, in the same setting: in the case of `CC1(C)N=C(N)N=C(N)N1c1cccc(OCCOc2ccccc2)c1` it was -0.84; in that of `O=C(O)Cc1ccccc1Nc1c(F)cccc1F`, 3.57.

`O=C1CC(Sc2ccncc2)N1` (centres undefined): the logP is 0.61. Same read-out and setting: in the case of `CC(C)(C)C(=O)C(C)(C)C` it was 3; in that of `Cc1ccncn1`, 0.16. Same read-out and setting: in the case of `CC1COC(=O)O1` (centres undefined) it was -0.41. Compound `CC(C)(C)c1cccc(C(C)(C)C)n1` returned a lipophilicity (logP) of 4.14.

The compound `C=CC1(C)OC(=O)N(c2cc(Cl)cc(Cl)c2)C1=O` (centres undefined) showed a log partition coefficient (logP) of 3.1. Still for that read-out and setting: the result for `CN(C)/C=C/[N+](=O)[O-]` reads -0.8; that for `COc1ccc(CC#N)cc1`, 1.7. The same measure, in the same setting: the result for `ClCC#CCCl` reads 2.01; that for `O=C(CCBr)N1CCN(C(=O)CCBr)CC1`, 0.42. On the same count and under the same terms, in the case of `Clc1cc(Cl)c2c(Cl)ccc(Cl)c2c1` it was 5.76. Take `O=C1C(Cl)C(CCl)CN1c1cccc(C(F)(F)F)c1` (centres undefined): the logP turned out to be 3.36. The same measure, in the same setting: in the case of `CNC1=CC(=O)c2ccccc2C1=O` it was 1.74; in that of `COc1ccc2cc(C(C)C(=O)OCC(=O)N(C)CC(N)=O)ccc2c1` (centres undefined), 1.37.

In the case of `COC(=O)C(=O)OC`, the logP was -0.17.

On to `CC1(C)CNC(=NN=C(C=Cc2ccc(C(F)(F)F)cc2)C=Cc2ccc(C(F)(F)F)cc2)NC1`, for which the logP amounted to 2.31. The compound `N#Cc1cccc(C=O)c1` yielded a logP of 1.18. As for `CCCCc1c(C)[nH]c(N(C)C)nc1=O`, the logP was determined as 1.9.

Take `O=CN1CCCC1`: the logP is -0.32. Same read-out and setting: the result for `CCN(CC)C(=O)COC(=O)[C@@H](C)c1ccc2cc(OC)ccc2c1` reads 3.32; that for `c1cnc2nc[nH]c2c1`, 0.3.

In turn, `c1ncc2c(n1)-c1cn[nH]c1-2` registered a logP of 0.14.

Turning to `CCOC(=O)CCCOc1ccc(Cl)cc1C`, the logP is 4.26. Compound `COC(=O)c1ccc(Cl)cc1` displayed a logP of 2.76. Same read-out and setting: the result for `CCCn1cnc2c(NC(C)=O)ncnc21` reads 0.09; that for `Fc1cc(F)c(F)c(F)c1F`, 2.53. Still for that read-out and setting: the result for `CC(C)(C)NCC(O)COCCCc1ccccc1` (centres undefined) reads 2.58.

In turn, `CNC(=S)NNc1ccccc1` returned a logP of 1.17. On the same count and under the same terms, in the case of `Clc1cc(Cl)c2cc(Cl)cc(Cl)c2c1` it was 6.19; in that of `Cc1cc(C)[nH]n1`, 1.01; in that of `CC(=O)Nc1nccs1`, 0.76. In turn, `Cc1c(Cl)cc(-c2ccc(=O)[nH]n2)cc1Cl` displayed a logP of 3.2. `c1ccc(-c2cnc(-c3ccccc3)o2)cc1` had a logP of 4.67. On the same count and under the same terms, the result for `S=C(N/N=C/c1ccc[nH]1)Nc1ccccc1` reads 3.73; that for `O/N=C\c1ccc(F)cc1`, 2.03; that for `COC(=O)/C=C/C(=O)OC`, 0.74.

Turning to `FCC1CO1` (centres undefined), the logP was -0.16. On the same count and under the same terms, the result for `Cc1ccc(N(SC(F)(Cl)Cl)S(=O)(=O)N(C)C)cc1` reads 3.95. Same read-out and setting: in the case of `NS(=O)(=O)Cc1ccccc1` it was 0.13; in that of `COc1ccccc1C(C)=O`, 1.82; in that of `CC(C(=O)O)c1ccc(N2C(=O)C3CC=CCC3C2=O)cc1` (centres undefined), 2.27.

For `FN(F)C(c1ccccc1)(c1ccccc1)c1ccccc1`, the logP turned out to be 3.73. On the same count and under the same terms, the result for `OC1CCCCCCCCCCC1` reads 3.75; that for `CNC1=C(N2CC2)C(=O)C(NC)=C(N2CC2)C1=O`, 0.13; that for `CCN(CC)S(=O)(=O)c1ccc(OC)c(N)c1`, 1.7.

Consider `CC(C)(NC(=O)C(Br)C(C)(C)C)c1ccccc1` (centres undefined), for which the logP amounted to 3.46. Same read-out and setting: in the case of `CC1C=CCN1` (centres undefined) it was 1.87. The same measure, in the same setting: in the case of `CC1(C)CCC(C)(C)O1` it was 2.06; in that of `CCOc1cccc(Cl)n1`, 2.55; in that of `N#C/C=C/C#N`, -0.25. `CCON=C(OC(=O)c1ccccc1)c1c(OC)ccc(Cl)c1OC` gave a logP of 2.4. For the compound `COC(=O)CCCCC(=O)OC`, the logP came to 1.03. On the same count and under the same terms, the result for `CCOC(=O)NNc1ccccc1` reads 1.22; that for `CC(C)(C)C1=Nc2ccc(Cl)cc2S(=O)(=O)N1`, 2.4. Same read-out and setting: the result for `Nc1nc2cc(Cl)ccc2[nH]1` reads 1.88. On the same count and under the same terms, in the case of `CC#CC#CC` it was 2.24. `CNC(=O)CNC(=O)CCc1ccc(S(=O)(=O)N(C)C)cc1`: the logP is -0.35.

Take `CN(C)N=Nc1ccc(CCCC(=O)O)cc1`: the logP turned out to be 2.62.

Staying with this data set, now noted: pH 1.0.
Usually logD stands for lipophilicity at a set pH, counting ionised and neutral species. Read a high logD as higher lipophilicity. Take `CC(C)(CCC(=O)O)C(=O)O`: the logD was 0.67.

For `O=C(O)Cc1ccc2ccccc2c1`, the logD worked out at 2.81. The compound `CCOc1ccc(C(=O)O)cc1OCC` returned a logD of 2.37. The same measure, in the same setting: in the case of `O=C(O)/C=C/c1ccc([N+](=O)[O-])cc1` it was 2.12. The same measure, in the same setting: the result for `O=C(O)c1ccccc1N1C(=O)CCC1=O` reads 1.55. As to `O=C(O)c1c(Cl)cccc1Cl`, the logD stood at 2.23.

Staying with this data set, now noted: pH 2.1.
Compound `CC(=O)c1cccc(S(N)(=O)=O)c1` came in with a logD of 0.25.

Still in this data set, the particulars now being: pH 3.9.
On to `COC(=O)Nc1cccc(OC(=O)Nc2cccc(C)c2)c1`, for which the logD turned out to be 3.59.

The data set is the same for the next values; noted with them: pH 4.0.
`O=[N+]([O-])c1ccc(NN=C(C(F)(F)F)C(F)(F)F)c([N+](=O)[O-])c1` gave a logD of 3.8.

The same data set, now with this note: pH 7.0.
Take `Nc1nc(=O)n([C@H]2CC[C@@H](CO)O2)cc1Br`: the logD is -0.48. Same read-out and setting: in the case of `COc1cccc2c1C(=O)c1c(O)c3c(c(O)c1C2=O)CC(O)(C(=O)CO)CC3OC1CC(O)C(O)C(C)O1` (centres undefined) it was 1.75. The same measure, in the same setting: in the case of `CCCCC#N` it was 1.12; in that of `S=c1nc(-c2ccccc2)[nH][nH]1`, 1.84. On the same count and under the same terms, in the case of `COc1ccc2c(c1OC)-c1ccc(OC)c(=O)cc1[C@@H](NC(C)=O)CC2` it was 1.02.

The data set is the same for the next values; noted with them: pH 7.4.
`Fc1cccc2cccnc12` registered a logD of 2.19. The same measure, in the same setting: in the case of `CCCc1ncc([N+](=O)[O-])n1CCNC(=S)OC` it was 1.94; in that of `CN(C(F)(F)F)S(=O)(=O)CCCn1ccnc1C=NO`, 1.77; in that of `CN1C(=O)CN=C(c2ccccc2)c2cc(C#N)ccc21`, 1.8. On the same count and under the same terms, in the case of `O=C1Nc2ccccc2C1=O` it was 0.83; in that of `Cn1c([N+](=O)[O-])cnc1-c1ccc(N)cc1`, 1.06; in that of `CC(C)Cn1c(=O)n(C)c(=O)c2[nH]c(CCN3CCN(C(c4ccc(F)cc4)c4ccc(F)cc4)CC3)nc21`, 4.16. Same read-out and setting: in the case of `Cc1nc([N+](=O)[O-])cn1COCCS(C)(=O)=O` it was -0.84.

With `CCc1cccc2cccnc12`, the logD is 2.93. The same measure, in the same setting: in the case of `Nc1ccc2c(n1)[nH]c1ccccc12` it was 2.6. On the same count and under the same terms, the result for `CCN(CCO)c1ccccc1` reads 2.1; that for `CCOC(=S)NCCn1c([N+](=O)[O-])cnc1C`, 1.5. `ICCI` registered a logD of 2.71. The same measure, in the same setting: the result for `Cc1nc(C)c([N+](=O)[O-])[nH]1` reads 0.43.

The data set is the same for the next values; noted with them: pH 9.0.
Regarding `NC(=O)c1nc[nH]c1N`, the logD is -1.1. Same read-out and setting: the result for `Cc1c[nH]cn1` reads 0.23.

Staying with this data set, now noted: pH 10.6.
`C=CCN1CCc2nc(N)sc2CC1`: the logD is 1.48.

The data set is the same for the next values; noted with them: pH 11.0.
`C[C@@H]([C@H](O)c1ccccc1)N(C)C`: the logD turned out to be 1.7.

The same data set, now with this note: pH 13.0.
`N=C(N)c1ccccc1` yielded a logD of 0.65. The same measure, in the same setting: the result for `CN1CCN(C)CC1` reads -0.4; that for `C1CCC2=NCCCN2CC1`, 1.38.

For the compound `CNCCNC`, the logD was -0.62. With `COc1c(C)ccc(Cc2cnc(N)nc2N)c1C(C)(C)C`, the logD turned out to be 3.05. Compound `c1ccc(N2CCNCC2)cc1` registered a logD of 1.11.

Conditions in a further data set: not given
The source holds these as a separate data set.
Regarding `C#CCNS(=O)(=O)c1ccc(OC)c(C(=O)NCC2CCCN2CC)c1` (centres undefined), the logP came out at 2.42. Compound `O=C(O)Cc1nn(Cc2ccc(Br)cc2F)c(=O)c2ccccc12` showed a logP of 2.68. In turn, `CN1C(C(=O)Nc2ccccn2)=C(O)c2sc(Cl)cc2S1(=O)=O` came in with a logP of 2.62.

Compound `COc1cc(Cc2cnc(N)nc2N)cc(Br)c1OC` had a logP of 2.23. Still for that read-out and setting: the result for `O=C(O)Cc1c[nH]c2ccc(O)cc12` reads 1.17.
